Measurements from patent US20230278974A1, “ANTITUMORAL ASCORBIC ACID ESTERS” (SUIGENERIS FARMACOSMETICS, S.L., priority 2020, published 2023).

System: primary or metastatic human cancer cells from various origins (IGR39, IGR37, MW115, MW266.4, DLD1, SW480, HCT116, NUG-C4, COLO668, BXPC3, CAPAN2, RWP1)
Experiment: Growth inhibition of human cancer cell lines (crystal violet staining, 96 well plates)
Type: cell-based
Conditions: even at concentrations as low as 0.2 mM; 72 h treatment
From the text: The BXPC3, CAPAN2, RWP1 cell lines from human pancreatic cancer were provided by the Biomedical Research Institute (IRB) Barcelona; the MW115 and IGR39 cell lines from human primary melanoma and MW 266.4 and IGR37 from human metastatic melanoma were provided by Dr. Manel Esteller from the Catalan Institute of Oncology (ICO) Barcelona (Vizoso M. et al., “Epigenetic activation of a cryptic TBC1D16 transcript enhances melanoma progression by targeting EGFR” Nat Med., 2015, vol 21(7), pp. 741-50); DLDL1, SW480 and HCT116 cell lines from human colon cancer were provided by Dra. Neus Agell from the Research Institute August Pi Sunyer (IDIBAPS) - University of Barcelona (UB); NUG-C4 and COLO668 cell lines from human gastric and lung cancers, respectively, were provided by the Center for Genomic Regulation (CRG) Barcelona. […]
The cells were resuspended by trypsin/EDTA digestion with 0.5% Trypsin-EDTA in the case of different human cancer cell lines, and 0.25% Trypsin-EDTA in the case of human primary endothelial cells. Once resuspended in culture medium, they were counted in Newbauer chamber after a 1:1 dilution with trypan blue. […]
The optical density values per well were obtained by a Biotek Synergy™2 multi-detection microplate reader, using a 590 nm filter and by scanning reading, obtaining the mean values per well.

SMILES: CCCCCCC1CCC(CCC(=O)OC[C@H](O)[C@H]2OC(=O)C(O)=C2O)CC1 (stereo partly drawn) [Compound Ib, (S)-2-((R)-3,4-Dihydroxy-5-Oxo-2,5-Dihydrofuran-2-Yl)-2-Hydroxyethyl 3-(4-Hexylcyclohexyl)Propanoate]
- inhibitory capacity on growth of cancer cells: remarkable inhibitory capacity
